The record followed here is patent publication US20240300948A1, “Heterocyclic Compounds As Kinase Inhibitors” (Incyte Corporation, priority 2023, published 2024).

Assay [1] concerns the target T1, catalytic domain (JH1, amino acids 826-1132) of human JAK2 (Homo sapiens, UniProt O60674).
T1 construct: catalytic domain (JH1, amino acids 826-1132) of human JAK2; FLAG (N); purchased Carna Biosciences 08-445-20N; host or cells: baculovirus expression system
The assay is described as follows: JAK2 LanthaScreen JH1 binding assay. As to conditions: 50 nM tracer, 2 hours at 25° C., read-out: JH1 BIND IC50. The protocol:
Example A. JAK2 LanthaScreen […] Binding Assay
JAK2 JH1 binding assay utilizes catalytic domain (JH1, amino acids 826-1132) of human JAK2 expressed as N-terminal FLAG-tagged, biotinylated protein in a baculovirus expression system (Carna Biosciences, Product #08-445-20N). The assay was conducted in black 384-well polystyrene plates in a final reaction volume of 20 μL. JAK2 JH1 (1.5 nM) was incubated with compounds (100 nL serially diluted in DMSO) in the presence of 50 nM fluorescent JAK2-JH1 tracer and 0.5 nM Streptavidin-Tb cryptate (Cisbio Part #610SATLB) in assay buffer (50 mM Tris, pH=7.5, 10 mM MgCl2, 0.01% Brij-35, 0.1% BSA, 1 mM EGTA, 5% Glycerol and 5 mM DTT). Non-specific binding was accessed in the presence of 2 mM ATP. After incubation for 2 hours at 25° C., LanthaScreen signals were read on a PHERAstar FS plate reader (BMG LABTECH). Data was analyzed with IDBS XLfit and GraphPad Prism 5.0 software using a four parameter dose response curve to determine IC50 for each compound.
On the technique in general: Time-resolved FRET reads energy transfer from a long-lived donor to a nearby acceptor.

The target of assay [2] is T2, pseudo-kinase domain (JH2, amino-acids 536-812 with 3 surface mutations W659A, W777A, F794H) of human Wild Type JAK2 (Homo sapiens, UniProt O60674, F794H/W659A/W777A).
T2 construct: pseudo-kinase domain (JH2, amino-acids 536-812 with 3 surface mutations W659A, W777A, F794H); His (C); Avi (biotinylated) (C); purchased BPS Bioscience 79463; host or cells: baculovirus expression system
T2 sequence (O60674 536-812 W659A/W777A/F794H): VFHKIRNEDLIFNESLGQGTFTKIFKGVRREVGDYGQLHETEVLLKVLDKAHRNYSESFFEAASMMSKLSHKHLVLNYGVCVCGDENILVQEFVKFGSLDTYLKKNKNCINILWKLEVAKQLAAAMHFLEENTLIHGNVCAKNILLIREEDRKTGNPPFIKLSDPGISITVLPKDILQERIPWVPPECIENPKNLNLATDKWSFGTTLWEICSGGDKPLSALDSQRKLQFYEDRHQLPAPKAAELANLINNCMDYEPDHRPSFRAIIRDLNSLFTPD
Kind of assay: JAK2 LanthaScreen JH2-WT binding assay. As to conditions: 50 nM tracer, 1 hour at 25° C., read-out: JH2 BIND WT IC50. The protocol:
Example B. JAK2 LanthaScreen JH2-WT Binding Assay
(§1) JAK2 JH2-WT binding assay utilizes pseudo-kinase domain (JH2, amino-acids 536-812 with 3 surface mutations W659A, W777A, F794H) of human Wild Type JAK2 expressed as C-terminal His-Avi-tagged, biotinylated protein in a baculovirus expression system (BPS Bioscience, Catalog #79463). The assay was conducted in black 384-well polystyrene plates in a final reaction volume of 20 μL. JAK2 JH2-WT (0.145 nM) was incubated with compounds (100 nL serially diluted in DMSO) in the presence of 50 nM Fluorescent JAK2-JH2 Tracer (MedChem Express Catalog #HY-102055) and 0.25 nM Streptavidin-Tb cryptate (Cisbio Part #610SATLB) in assay buffer (50 mM Tris, pH=7.5, 10 mM MgCl2, 0.01% Brij-35, 0.1% BSA, 1 mM EGTA, 5% Glycerol and 5 mM DTT). Non-specific binding was accessed in the presence of 2 mM ATP. After incubation for 1 hour at 25° C., LanthaScreen signals were read on a PHERAstar FS plate reader (BMG LABTECH). Data was analyzed with IDBS XLfit and GraphPad Prism 5.0 software using a four parameter dose response curve to determine IC50 for each compound.

Assay [3] addresses T3, pseudo-kinase domain (JH2, amino-acids 536-812 with 3 surface mutations W659A, W777A, F794H) of human V617F mutant JAK2 (Homo sapiens, UniProt O60674, F794H/V617F/W659A/W777A).
T3 construct: pseudo-kinase domain (JH2, amino-acids 536-812 with 3 surface mutations W659A, W777A, F794H); His (C); Avi (biotinylated) (C); purchased BPS Bioscience 79498; host or cells: baculovirus expression system
The assay is described as follows: JAK2 LanthaScreen JH2-V617F binding assay. As to conditions: 50 nM tracer, 1 hour at 25° C., read-out: JH2 BIND V617F IC50. The protocol: Example C. JAK2 LanthaScreen JH2-V617F Binding Assay
as §1, with “JH2-V617F” for “JH2-WT”, “V617F mutant” for “Wild Type”, “#79498).” for “#79463).”, “JH2-V617F (0.26” for “JH2-WT (0.145”

T1 sequence (O60674 826-1132): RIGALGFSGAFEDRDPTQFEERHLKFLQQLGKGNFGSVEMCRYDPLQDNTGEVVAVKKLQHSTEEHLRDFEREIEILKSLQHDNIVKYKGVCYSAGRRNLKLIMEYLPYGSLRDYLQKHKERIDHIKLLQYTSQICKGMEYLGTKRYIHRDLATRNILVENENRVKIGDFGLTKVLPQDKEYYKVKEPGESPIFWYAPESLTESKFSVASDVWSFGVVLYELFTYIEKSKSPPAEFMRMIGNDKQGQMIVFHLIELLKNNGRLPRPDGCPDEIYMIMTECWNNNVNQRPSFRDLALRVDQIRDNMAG
T3 sequence (O60674 536-812 V617F/W659A/W777A/F794H): as the sequence (O60674 536-812 W659A/W777A/F794H) above, with V82F counted along it

For orientation: IC50 means the point on the concentration scale where inhibition reaches its midpoint. For `COC(=O)N[C@H]1C[C@H](N2C(=O)NC(C)c3cnc4[nH]c(-c5cnn(C)c5)c(-c5ccc6c(cnn6C(C)C)c5)c4c32)C1` (mixture of isomers) [Example 38, Methyl ((1r,3r)-3-(9-(1-isopropyl-1H-indazol-5-yl)-4-methyl-8-(1-methyl-1H-pyrazol-4-yl)-2-oxo-2,3,4,7-tetrahydro-1H-pyrrolo[3′,2′:5,6]pyrido[4,3-d]pyrimidin-1-yl)cyclobutyl)carbamate], the results for the half-inhibitory concentration (IC50) in assay [1], in assay [2] and in assay [3] were > 1000 nM, 10 to 100 nM and 10 to 100 nM, respectively.
On to `CC(=O)N1CCC(N2C(=O)NCc3cnc4[nH]c(-c5cnn(C)c5)c(-c5ccc6c(cnn6C(C)C)c5)c4c32)CC1` [Example 15, 1-(1-Acetylpiperidin-4-yl)-9-(1-isopropyl-1H-indazol-5-yl)-8-(1-methyl-1H-pyrazol-4-yl)-1,3,4,7-tetrahydro-2H-pyrrolo [3′,2′:5,6]pyrido[4,3-d]pyrimidin-2-one], for which the figures for the IC50 in assay [1], in assay [2] and in assay [3] were > 1000 nM, 10 to 100 nM and 10 to 100 nM, respectively.
Turning to `COC(=O)N[C@@H]1CC[C@@H](N2C(=O)NCc3cnc4[nH]c(-c5cnn(C)c5)c(-c5ccc6c(cnn6C6CCC6)c5)c4c32)C1` [Example 24, Methyl ((1R,3R)-3-(9-(1-cyclobutyl-1H-indazol-5-yl)-8-(1-methyl-1H-pyrazol-4-yl)-2-oxo-2,3,4,7-tetrahydro-1H-pyrrolo[3′,2′:5,6]pyrido[4,3-d]pyrimidin-1-yl)cyclopentyl) carbamate], the IC50 in assay [1] lay within 100 to 500 nM; in assay [2] it was 10 to 100 nM; in assay [3], 10 to 100 nM.
Take `COC(=O)N[C@@H]1CC[C@@H](N2C(=O)NCc3cnc4[nH]c(-c5cnn(C)c5)c(-c5cccc(F)c5)c4c32)C1` [Example 31, Methyl ((1R,3R)-3-(9-(3-fluorophenyl)-8-(1-methyl-1H-pyrazol-4-yl)-2-oxo-2,3,4,7-tetrahydro-1H-pyrrolo[3′,2′:5,6]pyrido[4,3-d]pyrimidin-1-yl)cyclopentyl) carbamate]: the figures for the IC50 in assay [1], in assay [2] and in assay [3] were > 1000 nM, 10 to 100 nM and 100 to 500 nM, respectively.
For the compound `CNc1nc(=O)n([C@@H]2CC[C@@H](NC(=O)OC)C2)c2c1cnc1[nH]c(-c3cnn(C)c3)c(-c3ccc4c(cnn4C(C)C)c3)c12` [Example 42, Methyl ((1R,3R)-3-(9-(1-isopropyl-1H-indazol-5-yl)-8-(1-methyl-1H-pyrazol-4-yl)-4-(methylamino)-2-oxo-2,7-dihydro-1H-pyrrolo[3′,2′:5,6]pyrido[4,3-d]pyrimidin-1-yl)cyclopentyl)carbamate], the IC50 in assay [1] is > 1000 nM; in assay [2], 10 to 100 nM; in assay [3], 10 to 100 nM.
As for `COC(=O)N[C@@H]1CC[C@@H](n2c(=O)nc(OC)c3cnc4[nH]c(-c5cnn(C)c5)c(-c5ccc6c(cnn6C(C)C)c5)c4c32)C1` [Example 40, Methyl ((1R,3R)-3-(9-(1-isopropyl-1H-indazol-5-yl)-4-methoxy-8-(1-methyl-1H-pyrazol-4-yl)-2-oxo-2,7-dihydro-1H-pyrrolo[3′,2′:5,6]pyrido[4,3-d]pyrimidin-1-yl)cyclopentyl)carbamate], the IC50 in assay [1] was > 1000 nM; in assay [2] it was 10 to 100 nM; in assay [3] it was 100 to 500 nM.
Turning to `COC(=O)N[C@@H]1CC[C@@H](n2c(=O)ncc3cnc4[nH]c(-c5cnn(C)c5)c(-c5ccc6c(cnn6C)c5)c4c32)C1` [Example 37, Methyl ((1R,3R)-3-(9-(1-methyl-1H-indazol-5-yl)-8-(1-methyl-1H-pyrazol-4-yl)-2-oxo-2,7-dihydro-1H-pyrrolo[3′,2′:5,6]pyrido[4,3-d]pyrimidin-1-yl)cyclopentyl)carbamate], the values for the IC50 in assay [1], in assay [2] and in assay [3] were > 1000 nM, 100 to 500 nM and 100 to 500 nM, respectively.
As to `COC(=O)N[C@@H]1CC[C@@H](N2C(=O)NCc3cnc4[nH]c(-c5cnn(C)c5)c(-c5ccc6c(cnn6C)c5)c4c32)C1` [Example 29, Methyl ((1R,3R)-3-(9-(1-methyl-1H-indazol-5-yl)-8-(1-methyl-1H-pyrazol-4-yl)-2-oxo-2,3,4,7-tetrahydro-1H-pyrrolo[3′,2′:5,6]pyrido[4,3-d]pyrimidin-1-yl)cyclopentyl) carbamate], the figures for the IC50 in assay [1], in assay [2] and in assay [3] were > 1000 nM, ≤ 10 nM and 10 to 100 nM, respectively.
The like results for `CC(=O)N[C@@H]1CC[C@@H](N2C(=O)NCc3cnc4[nH]c(-c5cnn(C)c5)c(-c5ccc6c(cnn6C(C)C)c5)c4c32)C1` [Example 9, N-((1R,3R)-3-(9-(1-Isopropyl-1H-indazol-5-yl)-8-(1-methyl-1H-pyrazol-4-yl)-2-oxo-2,3,4,7-tetrahydro-1H-pyrrolo[3′,2′:5,6]pyrido[4,3-d]pyrimidin-1-yl)cyclopentyl) acetamide] were, in that order, > 1000 nM, 10 to 100 nM and 10 to 100 nM.
As for `CC(C)n1ncc2cc(-c3c(-c4cnn(C)c4)[nH]c4ncc5c(c34)N([C@@H]3CC[C@@H](NS(C)(=O)=O)C3)C(=O)NC5)ccc21` [Example 10, N-((1R,3R)-3-(9-(1-Isopropyl-1H-indazol-5-yl)-8-(1-methyl-1H-pyrazol-4-yl)-2-oxo-2,3,4,7-tetrahydro-1H-pyrrolo[3′,2′:5,6]pyrido[4,3-d]pyrimidin-1-yl)cyclopentyl) methanesulfonamide], the IC50 was > 1000 nM in assay [1], 10 to 100 nM in assay [2] and 100 to 500 nM in assay [3].
As for `COC(=O)N[C@@H]1CC[C@@H](N2C(=O)NCc3cnc4[nH]c(-c5cnn(C)c5)c(-c5ccc6c(c5)COC6(C)C)c4c32)C1` [Example 26, Methyl ((1R,3R)-3-(9-(1,1-dimethyl-1,3-dihydroisobenzof uran-5-yl)-8-(1-methyl-1H-pyrazol-4-yl)-2-oxo-2,3,4,7-tetrahydro-1H-pyrrolo[3′,2′:5,6]pyrido[4,3-d]pyrimidin-1-yl)cyclopentyl)ca rbamate], the IC50 was 500 to 1000 nM in assay [1], ≤ 10 nM in assay [2] and ≤ 10 nM in assay [3].
In the case of `COC(=O)N[C@H]1C[C@H](N2C(=O)NCc3cnc4[nH]c(C5CC5)c(-c5ccc6c(cnn6C(C)C)c5)c4c32)C1` [Example 36, Methyl ((1r,3r)-3-(8-cyclopropyl-9-(1-isopropyl-1H-indazol-5-yl)-2-oxo-2,3,4,7-tetrahydro-1H-pyrrolo[3′,2′:5,6]pyrido [4,3-d]pyrimidin-1-yl)cyclobutyl) carbamate], the IC50 in assay [1] is > 1000 nM; in assay [2], 10 to 100 nM; in assay [3], 10 to 100 nM.
